Records with an inconclusive call do not appear. Activity calls are given as the source filed them.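 The calls were made as follows: active = EC50 no more than tenfold above the top concentration tested, with valid fit and all samples agreeing; inconclusive = flat fit at 30 to 70% inhibition, poor fit, or split samples; inactive = EC50 beyond tenfold the top concentration tested.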 Some results are limits rather than exact numbers.

In this assay the test system is BJeLR fibroblast viability, Alamar Blue fluorescence, 48 h. The experiment in a line: cytotoxicity toward RAS-transformed BJeLR fibroblasts, dose response, cell-based, alamar blue fluorescence, 48 h, cherrypicked samples (AID 2610).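 Also: BJ fibroblasts with hTERT plus SV40 large and small T and HRAS V12; EC50 for loss of viable cells so potency reflects cytotoxic compounds.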
`C[C@H]1O[C@@H](O[C@H]2[C@@H](O)C[C@H](O[C@H]3[C@@H](O)C[C@H](O[C@H]4CC[C@@]5(C)[C@H](CC[C@@H]6[C@@H]5C[C@@H](O)[C@]5(C)[C@@H](C7=CC(=O)OC7)CC[C@]65O)C4)O[C@@H]3C)O[C@@H]2C)C[C@H](O)[C@@H]1O`: the EC50 was under 104 nM. Under `COc1ccc2nc(NC(=O)c3ccoc3C)sc2c1` stands > 13300 nM (inactive); under `O=S(=O)(c1ccc(NC(=S)NCc2cccnc2)cc1)N1CCCCC1`, under 133 nM; under `O=C1c2cccc3cc([N+](=O)[O-])cc(c23)C(=O)N1CCN1CCCC1`, 409 nM. `C=C1C(=O)O[C@@H]2C[C@@H](C)[C@@H]3C=CC(=O)[C@@]3(C)[C@@H](OC(=O)CC(=O)O[C@H]3[C@@H]4C(=C)C(=O)O[C@@H]4C[C@@H](C)[C@@H]4C=CC(=O)[C@]43C)[C@H]12`: the EC50 was under 41.7 nM.

On to `O=C1SC(Cc2ccccc2)C(=O)N1c1ccccc1` (centres undefined), for which the EC50 is 2350 nM. Under `Nc1nc(CCl)nc(N(c2ccccc2)c2ccccc2)n1` stands 121 nM. As to `CCCCCCCN(C(=O)CCl)c1cccc(C)c1`, the EC50 is 429 nM. Under `O=C(COc1ccc([N+](=O)[O-])cc1)Nc1ccc(C(=O)NCc2cccnc2)cc1` stands > 13300 nM (inactive); under `COc1ccc(C[C@H]2NC[C@H](O)[C@H]2OC(C)=O)cc1`, under 64.7 nM; under `Cc1nc2ccc(CN(C)c3ccc(C(=O)N[C@@H](CCC(=O)O)C(=O)O)s3)cc2c(=O)[nH]1`, > 13300 nM (inactive). Under `CCOC(=O)c1[nH]c(C)c(C(=O)N2CCc3ccccc32)c1C` stands under 104 nM; under `COc1cc(SC)ccc1C(=O)Nc1nc2ccccc2[nH]1`, > 13300 nM (inactive); under `c1ccc(-c2noc(-c3ccc4c(c3)OCO4)n2)nc1`, > 13300 nM (inactive). As to `CSc1cc(-c2ccccc2)n(Cc2ccccc2Cl)c(=O)c1C#N`, the EC50 is 709 nM. Under `COc1ccc2[nH]c3c(NCCC4=CCCCC4)ncnc3c2c1` stands > 13300 nM (inactive); under `O=C(c1ccc2c3n(nc2c1)-c1ccccc1CO3)N1CCCCC1`, > 13300 nM (inactive); under `Cc1nc(N)nc(N)c1CCCc1ccc(Cl)c(Cl)c1`, > 13300 nM (inactive). Consider `Cc1ccc(C)c(NS(=O)(=O)c2ccc(-c3cnc(C4CC4)o3)cc2)c1`, for which the EC50 is under 104 nM.

For the compound `Cc1cccc(N(C)S(=O)(=O)c2ccc(-c3cnc(C4CC4)o3)cc2)c1`, the EC50 is under 104 nM. As for `COc1ccccc1N1CCN(C(=O)c2cc(=O)c3cc(C)cc(C)c3o2)CC1`, the figure is under 104 nM; as for `Nc1nc(CCl)nc(Nc2cccc3ccccc23)n1`, 493 nM.

In the case of `CCCCC(=O)NC(c1ccc(C(C)C)cc1)c1ccc2cccnc2c1O` (centres undefined), the EC50 was 6420 nM. As for `C/C(=N\NC(=O)c1ccccc1F)c1ccccn1`, the figure is 4140 nM. On to `CCOc1ccccc1C(=O)N1CCN(c2cccc(Cl)c2)CC1`, for which the EC50 is under 104 nM.

`COc1cc(/C=C/[N+](=O)[O-])ccc1O`: the 50% effective concentration (EC50) is 6500 nM. As for `CCCOc1ccc(C(=O)C(CCC(CNCC)C(=O)c2ccc(OCCC)cc2)CNCC)cc1` (centres undefined), the figure is 638 nM; as for `C/C(=N\Nc1nc2ccccc2[nH]1)c1ccccn1`, 165 nM; as for `CCOC(=O)c1c(CSC(=N)N)n(-c2ccc(C)cc2)c2cc(Br)c(OC(C)=O)cc12`, > 13300 nM (inactive). Under `COc1cccc(NC(=O)n2ncc3c(C)cccc32)c1` stands > 13300 nM (inactive); under `CC1CCCCC1N(C)C1CCN(C(=O)CNC(=O)/C=C/c2cccc(Cl)c2)CC1` (centres undefined), 1290 nM; under `Cc1cccc(NC2=NC(C)(C)N=C(N)N2)c1`, > 13300 nM (inactive).

In the case of `COCc1c(C(C)C)nc(C(C)C)c(/C=C/[C@@H](O)C[C@@H](O)CC(=O)O)c1-c1ccc(F)cc1`, the EC50 is under 104 nM. Take `CCCc1cc(=O)[nH]c(SCC(=O)c2c(N)n(CC(C)C)c(=O)n(C)c2=O)n1`: the EC50 was > 13300 nM (inactive).

For the origin of these results see PubChem BioAssay AID2610 (Broad Institute, 2010).
